Entries after “also recorded” stand apart in the source; their conditions may differ. Read-outs that look alike come from different tables or passages of the source.

In one data set the test system is ALT U2OS cells. As to the kind of experiment: Cell killing / viability, U2OS. The format is cell-based. Here is the method: FIGS. 8A-8C show analysis of ADAR1i-124 effects in cancer cells. […] Viability was examined using the Apo Tox-Glo assay system. Control, 0.3% DMSO. Data: mean±SD (n=3). Significant differences identified by two-tailed Student's t-tests: *P<0.05, n.s., not significant. (FIG. 8B) Western blotting analysis of HeLa cells treated with ADAR1i-124 (10 μM).
(§1) FIGS. 9A-9C show dose-dependent killing of cancer cells and activation of IFN signaling. […] YUMM1.7 (FIG. 9B) and HGS2 cells (FIG. 9C) were treated with ADAR1i-124 at 10 μM (12 hrs). RNA samples were analyzed by qRT-PCR to monitor ISG expression levels. Data: mean±SD (n=3). Significant differences were identified by two-tailed Student's t-tests: ***P<0.001.
(§2) Dose-dependent selective killing of telomerase reactivated cancer cells was determined (FIG. 9A).

The test system of data set [1] is human and mouse melanoma (telomerase reactivated) cell lines. The data set can be described thus: Suppression of melanoma cell lines, comparison of inhibitors (not shown). The format is cell-based. The method, then: as §2
A further data set relates to Z-RNA. As to the kind of experiment: Z-RNA formation. The format is cell-based. From the text: FIGS. 7A-7C show analysis of ADAR1i-13 and analogs. […] IC50 values determined by dose-dependent in vitro editing assay are shown for ADAR1 inhibition positive compounds. […] Dumbbell-shaped dsRNA has been reported to form Z-RNA conformation and act as a strong IFN signaling activation triggers. ADAR1p150 mediated A-to-I editing suppresses Z-RNA structure transition and activation of IFN signaling.

Data set [2] relates to WM3000 PDX melanoma cell line. The data set can be described thus: Dose-dependent killing, WM3000. To be noted: human PDX melanoma cell line. The format is cell-based. Here is the method:
as §1
Treatments and analysis. The efficacy of ADAR1i alone or combining with αPD1 Ab for suppression of tumor growth will be assessed as described in the previous section (Aim 2-1). We have at our disposal the largest collection (>500) of clinically and genetically annotated melanoma PDX. […] We will use the human melanoma cell lines/PDXs in subcutaneous tumor assays in the hu-BLT mice. Human melanomas will be established in the hu-BLT mice and randomized into 4 treatment groups (n=5 per group): 1) ADAR1i alone, 2) αPD-1 Ab alone, 3) combination ADAR1i/αPD-1, 4) control IgG. Tumor volumes and overall survival will be determined as described in the previous section (Aim 2-1). Tumors will be biopsied and blood collected at interval periods (at EOT, e.g. 7 days, at TTR, and at EOS) and analyzed for hallmark melanoma features as above. […]

In the next data set the test system is YUMM1.7 cells. As to the kind of experiment: qRT-PCR of ISG expression (IFN signaling), YUMM1.7. The format is cell-based, mouse. To be noted: YUMM1.7, 10 μM, 12 hrs. The method, then:
as §1, §2
On the technique in general: Real-time PCR tracks product formation cycle by cycle.

A further data set has as its system HeLa cells. The data set can be described thus: Cell death mechanism, Annexin V apoptosis marker, HeLa. The format is cell-based, human. From the text:
FIGS. 10A-10C show ADAR1i-124 kills cancer cells via different cell death mechanism. (FIG. 10A) Differential expression of ADAR1p150 and ADAR1p110 in cancer cells. […] Annexin V and pMLKL were used as apoptosis and necroptosis markers, respectively. At least 200 cells were examined. Data: mean±SD (n=3). Significant differences were identified by two tailed Student's t-tests: *P<0.05, n.s., not significant. […] We plan to evaluate ADAR1 inhibitors in vivo in mouse tumor model systems by using these mouse cancer cell lines.
Thus, ADAR1i-124 has the potential to act as a “two birds with one stone” cancer therapeutic.

The conditions of data set [3]: mouse, in vivo, ip.
In the next data set the test system is mouse melanoma. The data set can be described thus: Subcutaneous mouse melanoma growth in B6 black mice. The format is in vivo. Conditions: 4 treatments starting at Day 8, versus vehicle. From the text:
We inoculated mouse melanoma cells subcutaneously in B6 black mice. Then, starting at Day 8, we treated mice for 4 treatments of either vehicle only or ADAR1i-124 (FIG. 11A).

Data set [4] can be described thus: Half-life in culture media by loss of cancer cell killing activity. The format is in vitro ADME. To be noted: determined by loss of cancer cell killing activity (data not shown), read-out: t1/2 in the culture media (converted). The source says:
We will modify ADAR1i-124 and derive ADAR1i-124 analogs with higher potency (higher affinity binding and lower IC50) ready to be tested for animal model studies (next section).

A further data set has as its system HGS2 cells. The data set can be described thus: qRT-PCR of ISG expression (IFN signaling), HGS2. The format is cell-based, mouse. Conditions: HGS2, 10 μM, 12 hrs. Here is the method: as §1

`N#Cc1ccc(NC(=O)c2c(Cl)c3ccccc3n2CO)cc1` [ADAR1i-124]: in the data set on ALT U2OS cells, the “Killing of U2OS cells” value is listed as “unaffected”. The “Suppression of human and mouse melanoma cell lines relative to other inhibitors” value in data set [1] was “more efficiently than ADAR1i-13 and ADAR1i-120”. Besides, the Z-RNA formation result in the data set on Z-RNA is “induces formation of Z-RNAs”. For the same compound, the “Killing of WM3000 cells” value in data set [2] was “killed one PDX melanoma cell line, WM3000, in a dose-dependent manner; also recorded: dose-dependently killed”. Also, the “ISG expression / IFN signaling activation” value with YUMM1.7 cells is “upregulated expression of interferon stimulated genes (ISGs) including MDA5, CXCL9, and CXCL10; also recorded: upregulated expression of known ISGs; also recorded: activated type I IFN signaling; also recorded: Activation of the IFN signaling”; with HGS2 cells it was “Activation of the IFN signaling”. Moreover, in the data set on HeLa cells, the Induction of apoptosis entry is given as “induced apoptosis; also recorded: killed via apoptosis”. The Well tolerated dose entry in [3] and in [3] (5 days) was “up to 50 mg/kg” throughout. Further, the “Growth of mouse melanomas in vivo” value with mouse melanoma is recorded as “significantly suppressed growth of mouse melanomas”. For the same compound, in data set [4], the half-life was roughly 12 h.

These data come from patent publication US20260272878A1, “ADAR1 INHIBITORS AND USES THEREOF” (THE WISTAR INSTITUTE OF ANATOMY AND BIOLOGY, priority 2023, published 2026).
